Tests used:
TRPM8 [1] = molecular target: T1, TRPM8 (Mus musculus, UniProt Q8R4D5); assay: Whole-cell electrophysiological recording, menthol-activated TRPM8 in transfected HEK293T cells; type: cell-based; set-up: expressed in transfected cells; host or cells: HEK293T; conditions: negative control peptide
Procedure: (§1) HEK293T cells were cultured in Dulbecco's modified Eagle culture medium under a 37° C., 5% CO2 environment, 10% fetal bovine serum, penicillin (100 U/mL), and streptomycin ([…]) was needed to add into the culture medium. Transient transfection was conducted by using Lipo 2000 (Invitrogen) transfection kit and following the instruction manual.
(§2) Electrophysiological experiment recordings were performed on the cells within 24˜48 h of transient transfections. Specifically, single channel electrophysiological recordings were performed within 8 h after transfection.
Measurement of the cell currents was respectively performed in the whole-cell recording mode, inside-out recording mode or outside-out recording mode with a HEKA EPC10 amplifier. In the whole cell electrophysiological recordings, glass microelectrodes made of borosilicate material were fire-polished to a original electrode resistance of about 3-6 MΩ. Serial resistance was compensated by 60%. The whole cell electrophysiological recordings were performed at ±80 mV. For single channel electrophysiological recordings, glass microelectrodes were fire-polished to a higher resistance of 6-8 MΩ2. Current signal was sampled at 10 kHz and filtered at 2.9 kHz. Membrane potential of the cell membrane would be clamped at +80 mV. All electrophysiological recordings were performed at room temperature (22° C.) (the maximum variation is 1° C.). […]

TRPM8 [2] = molecular target: T1, TRPM8; assay: Inside-out single-channel recording of menthol-activated TRPM8 at +80 mV; type: cell-based; set-up: expressed in transfected cells; host or cells: HEK293T; conditions: saturating menthol (1 mM) alone
Procedure: as §1, §2
Measurement of the cell currents was respectively performed in the whole-cell recording mode, inside-out recording mode or outside-out recording mode with a HEKA EPC10 amplifier. In the whole cell electrophysiological recordings, glass microelectrodes made of borosilicate material were fire-polished to a original electrode resistance of about 3-6 MΩ. Serial resistance was compensated by 60%. The whole cell electrophysiological recordings were performed at ±80 mV. For single channel electrophysiological recordings, glass microelectrodes were fire-polished to a higher resistance of 6-8 MΩ2. Current signal was sampled at 10 kHz and filtered at 2.9 kHz. Membrane potential of the cell membrane would be clamped at +80 mV. All electrophysiological recordings were performed at room temperature (22° C.) (the maximum variation is 1° C.).
There were different bath and pipette solutions prepared for different ion channels current measurement. For ion channels such as TRPM8, TRPV1, TRPV2, TRPV3 and TRPA1, the formula of the bath and pipette solutions was: 130 mM NaCl, 0.2 mM EDTA and 3 mM HEPES, pH=7.2. For the current measurement of TRPM4 ion channel, the formula of the bath solution was: 130 mM NaCl and 3 mM HEPES, pH=7.2, and the formula of the pipette solution was: 500 μM CaCl2), 130 mM NaCl and 3 mM HEPES, pH=7.2. For the current measurement of TRPM2 ion channel, the formula of the bath solution was: 147 mM NaCl, 2 mM KCl, 1 mM MgCl2, 10 mM HEPES, 2 mM CaCl2) 13 mM Glucose, pH=7.4, and the formula of the pipette solution was: 147 mM NaCl, 1 mM MgCl2, 10 mM HEPES, pH=7.4. For the current measurement of Nav1.5, Nav1.7 ion channels, the formula of the bath solution was: 140 mM NaCl, 3 mM KCl, 1 mM MgCl2, 1 mM CaCl2), 10 mM HEPES, pH=7.2 and the formula of the pipette solution was: 140 mM CsF, 1 mM EGTA, 10 mM NaCl, 10 mM MgCl2, 3 mM KCl, pH=7.2. To evoke sodium channel current, the membrane potential was increased from −80 mV to +10 mV.
A rapid solution changer with a gravity-driven perfusion system (RSC-200, BioLogic) was used to rapidly perfuse specific solutions into the cells to be tested. Each solution was delivered through a separate tube so that there is no mixing of solutions. The glass microelectrode with a membrane patch was placed directly below the outlet of the perfusion tube during the electrophysiology recordings.

T1 sequence (Q8R4D5 whole entry): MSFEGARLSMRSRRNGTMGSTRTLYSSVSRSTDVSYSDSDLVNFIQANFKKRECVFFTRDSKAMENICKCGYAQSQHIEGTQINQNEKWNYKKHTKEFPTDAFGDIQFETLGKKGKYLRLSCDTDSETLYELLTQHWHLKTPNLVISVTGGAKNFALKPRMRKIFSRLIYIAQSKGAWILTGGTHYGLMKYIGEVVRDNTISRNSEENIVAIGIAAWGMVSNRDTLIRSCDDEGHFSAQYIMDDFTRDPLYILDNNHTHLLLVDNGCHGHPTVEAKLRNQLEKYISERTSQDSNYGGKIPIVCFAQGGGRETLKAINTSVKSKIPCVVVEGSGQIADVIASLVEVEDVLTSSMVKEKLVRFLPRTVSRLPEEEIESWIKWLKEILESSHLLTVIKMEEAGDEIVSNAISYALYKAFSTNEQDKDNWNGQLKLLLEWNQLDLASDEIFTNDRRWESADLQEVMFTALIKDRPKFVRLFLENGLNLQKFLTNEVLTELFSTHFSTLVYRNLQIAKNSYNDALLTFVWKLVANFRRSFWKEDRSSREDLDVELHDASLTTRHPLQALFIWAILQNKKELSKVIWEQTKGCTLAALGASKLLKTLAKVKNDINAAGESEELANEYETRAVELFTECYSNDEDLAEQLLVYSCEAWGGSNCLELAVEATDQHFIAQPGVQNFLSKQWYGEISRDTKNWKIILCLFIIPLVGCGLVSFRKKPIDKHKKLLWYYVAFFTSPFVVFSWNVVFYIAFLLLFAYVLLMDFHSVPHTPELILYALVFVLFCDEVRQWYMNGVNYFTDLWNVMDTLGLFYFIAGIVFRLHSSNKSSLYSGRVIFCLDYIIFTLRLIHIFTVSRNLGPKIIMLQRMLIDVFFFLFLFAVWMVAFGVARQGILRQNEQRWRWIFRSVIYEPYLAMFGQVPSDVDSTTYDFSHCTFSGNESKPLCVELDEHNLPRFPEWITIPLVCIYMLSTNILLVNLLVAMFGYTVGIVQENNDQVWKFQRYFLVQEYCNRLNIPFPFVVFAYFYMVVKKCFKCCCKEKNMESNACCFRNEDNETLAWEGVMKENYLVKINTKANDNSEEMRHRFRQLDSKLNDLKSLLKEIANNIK

Row | Compound | inhibition of TRPM8 (TRPM8 [1]) | maximum open probability of TRPM8 activation (TRPM8 [2]) [%] | single-channel conductance of TRPM8 (TRPM8 [2]; n=3) [pS]
1 | CDHRRRQARYRRC [S-DeC-1.2, negative control polypeptide, reference compound] | did not inhibit TRPM8 |  | 
2 | CC1CCC(C(C)C)C(O)C1 (stereo not drawn) [menthol, reference compound] |  | ~70 | 58.83±1.85
